B1: E. coli catabolite-activated protein (CAP) (natural protein, UniProt P0ACJ8 1-210, looked up)
chain: MVLGKPQTDPTLEWFLSHCHIHKYPSKSTLIHQGEKAETLYYIVKGSVAVLIKDEEGKEMILSYLNQGDFIGELGLFEEGQERSAWVRAKTACEVAEISYKKFRQLIQVNPDILMRLSAQMARRLQVTSEKVGNLAFLDVTGRIAQTLLNLAKQPDAMTHPDGMQIKITRQEIGQIVGCSRETVGRILKMLEDQNLISAHGKTIVVYGTR

Tests used:
Rpm1-NBARC = molecular target: T1, Rpm1-NBARC (Arabidopsis thaliana, UniProt Q39214); conditions: 100 μM ATP, 10 nM protein; MgCl2, pH 7.5
T1 sequence (Q39214 177-519): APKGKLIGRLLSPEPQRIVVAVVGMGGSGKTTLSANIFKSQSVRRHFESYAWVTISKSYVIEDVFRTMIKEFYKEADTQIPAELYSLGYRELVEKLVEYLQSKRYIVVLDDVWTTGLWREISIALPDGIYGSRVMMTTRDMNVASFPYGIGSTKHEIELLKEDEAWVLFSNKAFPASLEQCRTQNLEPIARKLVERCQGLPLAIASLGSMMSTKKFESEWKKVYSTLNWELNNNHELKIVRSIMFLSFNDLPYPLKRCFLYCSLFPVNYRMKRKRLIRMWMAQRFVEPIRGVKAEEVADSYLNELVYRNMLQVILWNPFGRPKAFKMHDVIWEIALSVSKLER

cross-linking = molecular target: the molecule itself; test: cross-linking

Row | Molecule | nucleotide phosphatase assay, HPLC (Rpm1-NBARC) | stoichiometry N (cross-linking)
1 | Nc1ncnc2c1ncn2[C@@H]1O[C@H](COP(=O)(O)OP(=O)(O)OP(=O)(O)O)[C@@H](O)[C@H]1O [ATP] | Rpm1-NBARC catalyzed the production of Ado from ATP and ADP | –
2 | B1 | – | 2
